Reference: US11065232B2, “Dihydrotetrabenazine for the treatment of anxiety and psychoses” (ADEPTIO PHARMACEUTICALS LIMITED, priority 2017, dated 2021)

Tests used:
[1] = target: Sigma 2 (h) (agonist radioligand) (Homo sapiens, UniProt Q5BJF2); experiment: Receptor protein binding studies, Sigma 2
From the text: (§1) The four 3,11b trans-dihydrotetrabenazine isomers (+)-α, (−)-α, (+)-β and (−)-β were subjected to specific binding assays to test their ability to bind to the receptors and transporter proteins described below. The results are set out in Table 1

[2] = target: T1, D4.4 (h) (antagonist radioligand) (Homo sapiens, UniProt P21917); experiment: Receptor protein binding studies, D4.4
T1 sequence (P21917 1-419): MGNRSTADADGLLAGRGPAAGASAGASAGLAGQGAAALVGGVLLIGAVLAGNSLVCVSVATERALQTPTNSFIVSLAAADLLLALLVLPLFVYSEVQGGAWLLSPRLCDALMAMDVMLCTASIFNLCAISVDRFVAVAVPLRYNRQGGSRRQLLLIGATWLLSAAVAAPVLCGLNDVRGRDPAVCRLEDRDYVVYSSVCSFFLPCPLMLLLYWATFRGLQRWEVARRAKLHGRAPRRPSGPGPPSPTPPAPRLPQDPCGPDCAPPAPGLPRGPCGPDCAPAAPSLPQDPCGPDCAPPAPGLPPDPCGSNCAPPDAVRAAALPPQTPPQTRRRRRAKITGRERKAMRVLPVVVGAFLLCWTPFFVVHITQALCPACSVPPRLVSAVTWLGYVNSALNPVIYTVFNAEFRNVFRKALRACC
From the text: as §1

[3] = target: Sigma 1 (h) (agonist radioligand) (Homo sapiens, UniProt Q99720); experiment: Receptor protein binding studies, Sigma 1
Chain of Sigma 1 (h) (agonist radioligand) (Q99720 whole entry): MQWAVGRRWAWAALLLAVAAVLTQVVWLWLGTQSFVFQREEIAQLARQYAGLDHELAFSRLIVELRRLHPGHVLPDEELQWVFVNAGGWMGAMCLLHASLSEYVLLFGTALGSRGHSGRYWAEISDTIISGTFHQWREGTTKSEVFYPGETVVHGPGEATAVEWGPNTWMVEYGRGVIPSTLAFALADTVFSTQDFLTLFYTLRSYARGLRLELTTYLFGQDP
From the text: as §1

[4] = target: D3 (h) (antagonist radioligand) (Homo sapiens, UniProt P35462); experiment: Receptor protein binding studies, D3
Chain of D3 (h) (antagonist radioligand) (P35462 whole entry): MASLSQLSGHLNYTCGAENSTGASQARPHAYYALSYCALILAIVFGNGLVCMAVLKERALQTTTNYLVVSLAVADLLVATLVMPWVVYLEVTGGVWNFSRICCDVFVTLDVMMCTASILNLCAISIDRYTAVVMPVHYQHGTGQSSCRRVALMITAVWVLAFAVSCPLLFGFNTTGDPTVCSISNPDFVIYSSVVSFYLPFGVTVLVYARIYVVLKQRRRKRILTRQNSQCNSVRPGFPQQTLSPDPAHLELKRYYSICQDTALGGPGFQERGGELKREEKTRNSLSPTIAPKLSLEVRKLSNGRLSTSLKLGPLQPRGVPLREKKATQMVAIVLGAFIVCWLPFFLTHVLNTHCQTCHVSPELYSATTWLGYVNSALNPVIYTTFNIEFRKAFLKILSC
From the text: as §1

[5] = target: 5-HT4e (h) (antagonist radioligand) (Homo sapiens, UniProt Q13639); experiment: Receptor protein binding studies, 5-HT4e
Chain of 5-HT4e (h) (antagonist radioligand) (Q13639 1-378 isoform Q13639-5): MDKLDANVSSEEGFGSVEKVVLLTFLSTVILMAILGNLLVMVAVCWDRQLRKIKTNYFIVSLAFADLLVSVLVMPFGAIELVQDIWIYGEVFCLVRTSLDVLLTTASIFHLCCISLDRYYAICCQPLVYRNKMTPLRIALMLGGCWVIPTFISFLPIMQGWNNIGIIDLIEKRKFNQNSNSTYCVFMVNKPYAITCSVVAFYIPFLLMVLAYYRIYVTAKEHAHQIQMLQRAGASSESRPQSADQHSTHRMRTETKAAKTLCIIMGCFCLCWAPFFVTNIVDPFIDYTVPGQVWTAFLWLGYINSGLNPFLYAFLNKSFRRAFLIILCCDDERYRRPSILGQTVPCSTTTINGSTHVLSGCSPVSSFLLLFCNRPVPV
From the text: as §1

[6] = target: T2, 5-HT1A(h) (agonist radioligand) (Homo sapiens, UniProt P08908); experiment: Receptor protein binding studies, 5-HT1A
T2 sequence (P08908 1-422): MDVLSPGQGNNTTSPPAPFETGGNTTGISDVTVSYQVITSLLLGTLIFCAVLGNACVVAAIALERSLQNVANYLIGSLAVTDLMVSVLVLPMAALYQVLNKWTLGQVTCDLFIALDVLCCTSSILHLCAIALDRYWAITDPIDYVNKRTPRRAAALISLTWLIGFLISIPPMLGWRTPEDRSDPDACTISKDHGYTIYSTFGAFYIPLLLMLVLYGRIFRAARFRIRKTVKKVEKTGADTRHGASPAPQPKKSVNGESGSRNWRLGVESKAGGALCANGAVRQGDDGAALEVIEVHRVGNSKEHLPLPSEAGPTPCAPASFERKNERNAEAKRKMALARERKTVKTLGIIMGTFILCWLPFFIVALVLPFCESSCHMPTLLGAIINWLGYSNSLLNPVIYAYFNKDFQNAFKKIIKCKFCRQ
From the text: as §1

[7] = target: T3, alpha 2C (h) (antagonist radioligand) (Homo sapiens, UniProt P18825); experiment: Receptor protein binding studies, alpha 2C
T3 sequence (P18825 1-462): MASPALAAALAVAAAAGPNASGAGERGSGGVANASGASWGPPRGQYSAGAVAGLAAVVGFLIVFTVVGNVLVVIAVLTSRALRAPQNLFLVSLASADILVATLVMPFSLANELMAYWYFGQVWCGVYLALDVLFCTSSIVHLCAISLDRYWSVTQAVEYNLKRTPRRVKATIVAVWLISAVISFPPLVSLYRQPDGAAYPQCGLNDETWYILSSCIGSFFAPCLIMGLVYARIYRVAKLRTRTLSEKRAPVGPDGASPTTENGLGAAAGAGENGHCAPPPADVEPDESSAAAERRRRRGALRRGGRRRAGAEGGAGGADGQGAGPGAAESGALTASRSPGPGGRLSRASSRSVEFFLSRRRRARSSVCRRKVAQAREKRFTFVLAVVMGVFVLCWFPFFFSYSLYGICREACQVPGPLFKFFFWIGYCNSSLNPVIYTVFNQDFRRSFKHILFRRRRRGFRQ
From the text: as §1

[8] = target: hERG (membrane preparation) (antagonist radioligand) (Homo sapiens, UniProt Q12809); experiment: Receptor protein binding studies, hERG
Chain of hERG (membrane preparation) (antagonist radioligand) (Q12809 whole entry): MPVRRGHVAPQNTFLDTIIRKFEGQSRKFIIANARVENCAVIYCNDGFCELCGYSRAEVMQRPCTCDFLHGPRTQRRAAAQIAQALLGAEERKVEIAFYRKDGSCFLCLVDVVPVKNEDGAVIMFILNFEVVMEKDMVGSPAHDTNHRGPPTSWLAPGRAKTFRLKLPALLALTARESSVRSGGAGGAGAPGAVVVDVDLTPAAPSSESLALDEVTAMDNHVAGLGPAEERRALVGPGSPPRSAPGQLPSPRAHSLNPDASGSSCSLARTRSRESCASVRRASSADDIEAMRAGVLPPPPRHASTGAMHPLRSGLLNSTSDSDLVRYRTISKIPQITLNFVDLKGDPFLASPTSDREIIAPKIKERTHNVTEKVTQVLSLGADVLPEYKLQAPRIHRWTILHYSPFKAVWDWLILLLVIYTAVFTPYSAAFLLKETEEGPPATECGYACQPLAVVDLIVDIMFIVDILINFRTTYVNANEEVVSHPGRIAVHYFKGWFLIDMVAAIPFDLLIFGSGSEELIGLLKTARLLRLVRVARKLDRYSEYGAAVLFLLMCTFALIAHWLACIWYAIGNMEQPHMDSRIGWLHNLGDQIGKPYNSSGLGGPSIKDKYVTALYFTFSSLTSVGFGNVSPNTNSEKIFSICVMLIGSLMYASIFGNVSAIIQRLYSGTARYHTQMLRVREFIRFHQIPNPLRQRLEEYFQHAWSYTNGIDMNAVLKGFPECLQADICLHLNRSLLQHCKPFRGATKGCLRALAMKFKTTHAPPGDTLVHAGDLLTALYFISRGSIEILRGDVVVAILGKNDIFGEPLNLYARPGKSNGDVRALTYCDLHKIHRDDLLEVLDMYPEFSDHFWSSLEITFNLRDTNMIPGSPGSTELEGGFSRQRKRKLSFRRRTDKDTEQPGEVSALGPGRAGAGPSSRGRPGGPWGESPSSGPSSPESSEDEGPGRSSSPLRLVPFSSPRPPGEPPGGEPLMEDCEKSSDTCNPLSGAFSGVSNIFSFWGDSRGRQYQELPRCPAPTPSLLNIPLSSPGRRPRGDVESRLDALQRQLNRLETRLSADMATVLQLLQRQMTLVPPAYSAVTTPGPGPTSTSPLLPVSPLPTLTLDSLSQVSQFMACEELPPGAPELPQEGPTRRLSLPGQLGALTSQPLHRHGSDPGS
From the text: as §1

[9] = target: T4, alpha 1B (h) (antagonist radioligand) (Homo sapiens, UniProt P35368); experiment: Receptor protein binding studies, alpha 1B
T4 sequence (P35368 1-520): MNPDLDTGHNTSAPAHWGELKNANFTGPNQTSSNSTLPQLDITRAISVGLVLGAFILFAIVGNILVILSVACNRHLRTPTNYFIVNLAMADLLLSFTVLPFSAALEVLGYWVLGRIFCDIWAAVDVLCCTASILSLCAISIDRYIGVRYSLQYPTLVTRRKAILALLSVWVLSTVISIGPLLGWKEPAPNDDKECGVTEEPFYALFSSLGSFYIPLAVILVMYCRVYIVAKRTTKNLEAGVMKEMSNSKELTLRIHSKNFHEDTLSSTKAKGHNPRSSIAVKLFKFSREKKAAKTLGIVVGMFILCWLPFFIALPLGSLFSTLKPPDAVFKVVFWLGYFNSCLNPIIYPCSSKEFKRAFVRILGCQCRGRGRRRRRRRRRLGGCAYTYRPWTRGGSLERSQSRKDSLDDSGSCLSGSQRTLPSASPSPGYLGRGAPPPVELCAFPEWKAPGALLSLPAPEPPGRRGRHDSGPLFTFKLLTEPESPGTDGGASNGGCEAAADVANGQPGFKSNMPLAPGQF
From the text: as §1

[10] = target: 5-HT5A(h) (Homo sapiens, UniProt P47898); experiment: Receptor protein binding studies, 5-HT5A
Chain of 5-HT5A(h) (P47898 whole entry): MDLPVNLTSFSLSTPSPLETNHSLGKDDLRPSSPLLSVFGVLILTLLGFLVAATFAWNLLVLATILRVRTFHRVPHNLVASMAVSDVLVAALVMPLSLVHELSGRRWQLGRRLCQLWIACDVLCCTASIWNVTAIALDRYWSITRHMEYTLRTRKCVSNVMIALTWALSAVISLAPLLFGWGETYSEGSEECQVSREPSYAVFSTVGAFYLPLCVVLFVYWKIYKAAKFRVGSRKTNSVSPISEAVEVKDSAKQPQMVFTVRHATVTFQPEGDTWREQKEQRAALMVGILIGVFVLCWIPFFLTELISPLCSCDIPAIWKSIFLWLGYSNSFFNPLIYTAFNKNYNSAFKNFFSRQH
From the text: as §1

[11] = CONC 1.0E−05 (unit not given), 10 μM
[12] = CONC 1.0E−06 (unit not given), 1 μM

Chain of Sigma 2 (h) (agonist radioligand) (Q5BJF2 whole entry): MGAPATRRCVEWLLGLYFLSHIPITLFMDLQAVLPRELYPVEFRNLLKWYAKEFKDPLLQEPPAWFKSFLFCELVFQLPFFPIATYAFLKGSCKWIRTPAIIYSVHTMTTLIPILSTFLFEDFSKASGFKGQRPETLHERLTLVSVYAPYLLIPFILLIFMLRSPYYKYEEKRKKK

Substance | % Inhibition of specific binding ([1]; CONC 1.0E−05 (unit not given)) [%] | % Inhibition of specific binding ([1]; CONC 1.0E−06 (unit not given)) [%] | activity at the dopamine D4 receptor (in words) [2] | % Inhibition of specific binding [2, 11] [%] | % Inhibition of specific binding [2, 12] [%] | % Inhibition of specific binding ([3]; CONC 1.0E−05 (unit not given)) [%] | % Inhibition of specific binding ([3]; CONC 1.0E−06 (unit not given)) [%] | % Inhibition of specific binding ([4]; CONC 1.0E−05 (unit not given)) [%] | % Inhibition of specific binding ([4]; CONC 1.0E−06 (unit not given)) [%] | % Inhibition of specific binding ([5]; CONC 1.0E−05 (unit not given)) [%] | % Inhibition of specific binding ([5]; CONC 1.0E−06 (unit not given)) [%] | % Inhibition of specific binding ([6]; CONC 1.0E−05 (unit not given)) [%] | % Inhibition of specific binding ([6]; CONC 1.0E−06 (unit not given)) [%] | % Inhibition of specific binding ([7]; CONC 1.0E−05 (unit not given)) [%] | % Inhibition of specific binding ([7]; CONC 1.0E−06 (unit not given)) [%] | % Inhibition of specific binding ([8]; CONC 1.0E−05 (unit not given)) [%] | % Inhibition of specific binding ([8]; CONC 1.0E−06 (unit not given)) [%] | % Inhibition of specific binding ([9]; CONC 1.0E−05 (unit not given)) [%] | % Inhibition of specific binding ([9]; CONC 1.0E−06 (unit not given)) [%] | % Inhibition of specific binding ([10]; CONC 1.0E−05 (unit not given)) [%] | further results
(+)-β-dihydrotetrabenazine [(+)-Beta] | 85 | 41 | essentially inactive | 2 | −3 | 99 | 92 | 12 | −18 | 19 | −4 | 64 | 20 | 12 | −7 | 8 | 3 | 1 | 3 | −13 | % Inhibition of specific binding ([10]; CONC 1.0E−06 (unit not given)): −23%
(−)-α-dihydrotetrabenazine [(−)-Alpha] | 85 | 52 | significantly less active | 65 | 19 | 78 | 40 | 79 | 26 | 26 | 4 | 96 | 80 | 69 | 17 | 19 | 5 | 14 | 9 | −6 | % Inhibition of specific binding ([10]; CONC 1.0E−06 (unit not given)): −24%
(+)-α-dihydrotetrabenazine [(+)-Alpha] | 70 | 34 | essentially inactive | −7 | −3 | 96 | 64 | 2 | −14 | 40 | 2 | 83 | 38 | 5 | 4 | 33 | 2 | 23 | −4 | −2 | % Inhibition of specific binding ([10]; CONC 1.0E−06 (unit not given)): −26%
